# Values of other authors as cited in patent publication US5030442A (priority 1989, dated 1991).
# Entries after “also recorded” stand apart in the source; their conditions may differ.
# Details: topical form, initial clinical studies
smiles,measurement,value
Nc1cc(N2CCCCC2)nc(N)[n+]1[O-] [minoxidil],hair growth response (in words),"reversal of male pattern baldness is most favorable in younger men, and where recent hair loss has occurred; also recorded: new hair growth is observed in a significant percentage of older men and/or where in cases of long-term baldness"
